Source: ChEMBL document CHEMBL1140968, “QSAR, action mechanism and molecular design of flavone and isoflavone derivatives with cytotoxicity against HeLa” (2008)

The compounds below were run on HeLa (assay: Cytotoxicity against human HeLa cells).
Type: functional
For `CO/N=C(/COc1ccc2oc(-c3ccccc3)cc(=O)c2c1)c1ccc(OC)cc1`, the GC50 was 2 µM and the pGC50 was 5.699. Work on `CO/N=C(\C)COc1ccc2c(=O)c(-c3ccccc3)coc2c1` yielded a GC50 of 8.5 µM and a pGC50 of 5.071. `O=c1c(OC/C(=N/O)c2ccccc2)c(-c2ccccc2)oc2ccccc12` was tested, and the GC50 was 1.8 µM and the pGC50 was 5.745. For `O=c1c(OC/C(=N/O)c2ccc(F)cc2)c(-c2ccccc2)oc2ccccc12`, the GC50 was 2.1 µM and the pGC50 was 5.678. In the case of `C/C(COc1c(-c2ccccc2)oc2ccccc2c1=O)=N\O`, the GC50 is reported as 2 µM and the pGC50 is reported as 5.699. Work on `CO/N=C(\C)COc1c(-c2ccccc2)oc2ccccc2c1=O` yielded a GC50 of 2 µM and a pGC50 of 5.699. `CO/N=C(\C)COc1ccc2oc(-c3ccccc3)cc(=O)c2c1` showed a GC50 of 0.9 µM and a pGC50 of 6.046. Compound `CO/N=C(\C)COc1ccc2c(=O)cc(-c3ccccc3)oc2c1` has a GC50 of 2.2 µM and a pGC50 of 5.658. Work on `C/C(COc1ccc2oc(-c3ccccc3)cc(=O)c2c1)=N\O` yielded a GC50 of 1.2 µM and a pGC50 of 5.921. Work on `C/C(COc1ccc2c(=O)c(-c3ccccc3)coc2c1)=N\O` yielded a GC50 of 9.8 µM and a pGC50 of 5.009. Compound `O=c1cc(-c2ccccc2)oc2ccc(OC/C(=N/O)c3ccccc3)cc12` has a GC50 of 0.8 µM and a pGC50 of 6.097. `O=c1cc(-c2ccccc2)oc2ccc(OC/C(=N/O)c3ccc(F)cc3)cc12` showed a GC50 of 1.6 µM and a pGC50 of 5.796. With `O=c1cc(-c2ccccc2)oc2cc(OC/C(=N/O)c3ccccc3)ccc12` the GC50 was 2 µM and the pGC50 was 5.699. `CO/N=C(/COc1c(-c2ccccc2)oc2ccccc2c1=O)c1ccc(F)cc1` was tested, and the GC50 was 2 µM and the pGC50 was 5.699. Compound `CO/N=C(/COc1c(-c2ccccc2)oc2ccccc2c1=O)c1ccc(OC)cc1` has a GC50 of 2 µM and a pGC50 of 5.699. `CO/N=C(/COc1ccc2oc(-c3ccccc3)cc(=O)c2c1)c1ccc(F)cc1` was tested, and the GC50 was 2.3 µM and the pGC50 was 5.638. With `O=c1cc(-c2ccccc2)oc2cc(OC/C(=N/O)c3ccc(F)cc3)ccc12` the GC50 was 2 µM and the pGC50 was 5.699. Compound `CO/N=C(/COc1ccc2c(=O)c(-c3ccccc3)coc2c1)c1ccccc1` has a GC50 of 8.2 µM and a pGC50 of 5.086. With `COc1ccc(/C(COc2ccc3c(=O)cc(-c4ccccc4)oc3c2)=N\O)cc1` the GC50 was 2 µM and the pGC50 was 5.699. In the case of `O=c1c(-c2ccccc2)coc2cc(OC/C(=N/O)c3ccccc3)ccc12`, the GC50 is reported as 9 µM and the pGC50 is reported as 5.046. `CO/N=C(/COc1c(-c2ccccc2)oc2ccccc2c1=O)c1ccccc1` showed a GC50 of 1.6 µM and a pGC50 of 5.796. In the case of `CO/N=C(/COc1ccc2c(=O)cc(-c3ccccc3)oc2c1)c1ccccc1`, the GC50 is reported as 6.6 µM and the pGC50 is reported as 5.18. For `CO/N=C(/COc1ccc2c(=O)cc(-c3ccccc3)oc2c1)c1ccc(F)cc1`, the GC50 was 2.7 µM and the pGC50 was 5.569. Compound `CO/N=C(/COc1ccc2c(=O)cc(-c3ccccc3)oc2c1)c1ccc(OC)cc1` has a GC50 of 2.5 µM and a pGC50 of 5.602. Work on `CO/N=C(/COc1ccc2c(=O)c(-c3ccccc3)coc2c1)c1ccc(F)cc1` yielded a GC50 of 6.4 µM and a pGC50 of 5.194. `CO/N=C(/COc1ccc2c(=O)c(-c3ccccc3)coc2c1)c1ccc(OC)cc1` showed a GC50 of 7.3 µM and a pGC50 of 5.137. `O=c1c(-c2ccccc2)coc2cc(OC/C(=N/O)c3ccc(F)cc3)ccc12` gave a GC50 of 7.8 µM and a pGC50 of 5.108. For `C/C(COc1ccc2c(=O)cc(-c3ccccc3)oc2c1)=N\O`, the GC50 was 2 µM and the pGC50 was 5.699. Work on `COc1ccc(/C(COc2ccc3oc(-c4ccccc4)cc(=O)c3c2)=N\O)cc1` yielded a GC50 of 1 µM and a pGC50 of 6. With `CO/N=C(/COc1ccc2oc(-c3ccccc3)cc(=O)c2c1)c1ccccc1` the GC50 was 2.4 µM and the pGC50 was 5.62. Compound `COc1ccc(/C(COc2ccc3c(=O)c(-c4ccccc4)coc3c2)=N\O)cc1` has a GC50 of 7.6 µM and a pGC50 of 5.119. Work on `COc1ccc(/C(COc2c(-c3ccccc3)oc3ccccc3c2=O)=N\O)cc1` yielded a GC50 of 2 µM and a pGC50 of 5.699.
